Reference: US20060198879A1, “Patch material for ionic medicine administration” (Tokuyama Corporation, priority 2003, published 2006)

What was measured:
[1] = Amount of medicine permeated in virtual skin system; format: in vitro ADME; conditions: 10 mmol/l, 25° C., no voltage
Description: (4) Amount of Medicine Permeated in Virtial Skin System
(§1) An aqueous solution containing 10% by mass of a polyvinyl alcohol (NH-20 produced by The Nippon Synthetic Chemical Industry Co., Ltd.) was coated on a filter paper (a chemical analysis filter paper 5C produced by Advantec). The amount of the solution coated was such that the amount of the polyvinyl alcohol after solvent removal was 2 mg/cm^2. Then, the filter paper was allowed to stand at room temperature for 24 hours or more to vaporize the water, whereby was obtained a virtual skin. […] An aqueous solution containing a given concentration of a medicine was filled in a medicine solution chamber 22; and an aqueous solution containing […] by mass of sodium chloride was filled in a virtual skin chamber 23. Then, a permeation test was conducted at 25° C. for a given period of time with the inside of the medicine solution chamber 22 and the inside of the virtual skin chamber 23 being stirred. Right after the completion of the test, the solution inside the virtual skin chamber 23 was withdrawn and used as a sample for measurement. The amount of medicine in the sample was determined using liquid chromatography.

[2] = Amount of medicine permeated in living body skin system; format: in vitro ADME, miniature pig (Yucatane Micropig); conditions: 10 mmol/l, miniature pig back skin
Description: as §1
(5) Amount of Medicine Permeated in Living Body Skin System
The amount of the medicine permeated was measured in the same manner as in the virtual skin system, by replacing the virtual skin (a filter paper coated with a polyvinyl alcohol) with a living body skin, i.e. the back skin of miniature pig (Yucatane Micropig, 5 month-old, female).

[3] = magnesium salt of ascorbic acid-phosphoric acid ester, duration of permeation 1 hr
[4] = magnesium salt of ascorbic acid-phosphoric acid ester, duration of permeation 2 hr
[5] = magnesium salt of ascorbic acid-phosphoric acid ester, duration of permeation 3 hr
[6] = sodium ascorbate, duration of permeation 3 hr

## Cl.Cl.NCCc1c[nH]cn1 [compound 6, histamine dihydrochloride]
[1]; histamine dihydrochloride, duration of permeation 3 hr
  Amount of permeation: 2.5 μmol/cm^2

## O=C1O[C@H]([C@@H](O)CO)C([O-])=C1OP(=O)([O-])[O-].O=C1O[C@H]([C@@H](O)CO)C([O-])=C1OP(=O)([O-])[O-].[Mg+2].[Mg+2].[Mg+2] [Comparative Example 9, magnesium salt of ascorbic acid-phosphoric acid ester]
[2]; [3]
  Amount of permeation: 0.010 μmol/cm^2
[2]; [4]
  Amount of permeation: 0.013 μmol/cm^2
[2]; [5]
  Amount of permeation: 0.015 μmol/cm^2

## O=C1O[C@H]([C@@H](O)CO)C([O-])=C1O.[Na+] [compound 8, sodium ascorbate]
[2]; sodium ascorbate, duration of permeation 1 hr
  Amount of permeation: 0.003 μmol/cm^2
[2]; sodium ascorbate, duration of permeation 2 hr
  Amount of permeation: 0.005 μmol/cm^2
[2]; [6]
  Amount of permeation: 0.007 μmol/cm^2

## O=C1O[C@H]([C@@H](O)CO)C([O-])=C1O.[Na+] [Comparative Example 4, sodium ascorbate]
[1]; [6]
  Amount of permeation: 5.2 μmol/cm^2

## O=C1O[C@H]([C@@H](O)CO)C([O-])=C1OP(=O)([O-])[O-].O=C1O[C@H]([C@@H](O)CO)C([O-])=C1OP(=O)([O-])[O-].[Mg+2].[Mg+2].[Mg+2] [Comparative Example 2, magnesium salt of ascorbic acid-phosphoric acid ester]
[1]; [3]
  Amount of permeation: 0.6 μmol/cm^2
[1]; [4]
  Amount of permeation: 1.3 μmol/cm^2
[1]; [5]
  Amount of permeation: 2.0 μmol/cm^2
